Source: PubChem BioAssay AID1963422 (Molecular Pharmacology Branch, DTP, NCI, 2024)
“And” between values parts separate entries of the source, which are not always exact repeats. Equal entries are not always repeated.

System: 463943-066-T-J2-PDC complex spheroid growth
Assay: Anticancer human tumor 463943-066-T-J2-PDC patient-derived colon adenocarcinoma cell line growth inhibition [Asc]
Conditions: for viability, T/C: stronger effect = lower value
Experimental: Multicellular complex tumor spheroid response to apoptosis pathway targeting inhibitors Alrizomadlin, Pelcitoclax, and Dasminapant in combination with a variety of drugs and investigational agents in selected tumor cell lines
The MDM2 inhibitor alrizomadlin, the Bcl-2/Bcl-xL inhibitor pelcitoclax, and the IAPs inhibitor dasminapant were evaluated both individually and in combination with standard of care and investigational anticancer small molecules within a complex spheroid model of solid tumors. . Complex spheroids include a stromal component modeled by human endothelial cells (HUVEC) and fibroblasts modeled by human mesenchymal stem cells (MSCs). The concentration ranges selected for each drug and investigational agent were based upon clinically achievable concentrations if the clinical Cmax of the agent was known.
Compounds. The drugs and investigational agents: alrizomadlin (APG-115; NSC831270), pelcitoclax (APG-1252; NSC835773), dasminapant (APG-1387;NSC834197), TAK-243 (NSC785004), copanlisib (NSC809693), olaparib (NSC753686), talazoparib (NSC767125), cobimetinib (NSC 768068), eltanexor (KPT-8602, NSC 794443), abemaciclib (NSC 768073), sotorasib (NSC818433), adagrasib (NSC 831453), MRTX-1133 (NSC 836407), Iadademestat (ORY1001, NSC 806812), and RMC-4630 (NSC839698), were obtained from the NCI Developmental Therapeutics Program Chemical Repository. The FDA-approved anticancer drug set is available from the Developmental Therapeutics Program at https://dtp.cancer.gov/organization/dscb/obtaining/available plates.htm. […] The stock solutions were prepared in dimethyl sulfoxide (DMSO, Sigma-Aldrich, St. Louis, MO, cat. D2650) at 800-fold the tested concentration and stored at -70 degrees C prior to their use. All drugs and investigational agents were tested over a range starting from a high concentration at or near the clinical Cmax and decreasing in half-log increments. If the clinical Cmax for an agent had not been determined, the highest concentration tested was 10 microM.
The patient-derived cancer (PDC) cell lines include five colon adenocarcinomas: 186277-243-T-J2-PDC, 616215-338-R-J1-PDC, 439559-082-T-J2-PDC, 463943-066-T-J2-PDC, and 519858-162-T-J1-PDC; three pancreatic carcinomas: 323965-272-R-J2-PDC, 521955-158-R6-J3-PDC, and 521955-158-R2-J5-PDC; two uterine sarcomas: 327498-152-R-J2-PDC and 993429-296-R-J1-PDC; two rhabdomyosarcomas: 755483-174-R-J1-PDC and 772245-204-R-J1-PDC; two soft tissue sarcomas: 126254-015-R-J1-PDC and 494315-158-R-J1-PDC; two malignant fibrous histiocytomas: 317291-083-R-J1-PDC and 596521-263-R-J1-PDC; two breast carcinomas: 171881-019-R-J1-PDC and 885512-296-R-J2-PDC; and one ovarian carcinoma: 6556581-035-R-J-PDC were obtained from the NCI PDMR, (https://pdmr.cancer.gov). The established cell lines HSSY-2 synovial sarcoma (RRID:CVCL 8719), SYO-1 synovial sarcoma (RRID:CVCL_7146), MPNST malignant peripheral neural sheath tumor were obtained from the Sloan Kettering Institute. The following established cell lines were purchased from the American Type Culture Collection (ATCC, Manassas, VA), Sor the received from the NCI repository:, PANC-1 pancreatic carcinoma (CRL-1469, RRID:CVCL_0480), OVCAR-5 ovarian carcinoma (RRID:CVCL_1628), OVCAR-8 ovarian carcinoma (RRID:CVCL_1629), , MCF-7 breast carcinoma (CRL-12584, RRID:CVCL_0031), MDA-MB-231 breast carcinoma (CRL-12532, RRID:CVCL_0062), NCI-H1876 small cell lung carcinoma (CRL-5902, RRID:CVCL_1503), NCI-H510A small cell lung carcinoma (HTB-184, RRID:CVCL_1565), NCI-H1417 (CRL-5869, RRID:CVCL_1469), and NCI-H196 small cell lung carcinoma (CRL-5823, RRID:CVCL_1509). Dr. Peter Houghton (Greehey Children's Cancer Research Institute, University of Texas Health Science Center, San Antonio, TX) provided Rh-18 rhabdomyosarcoma (RRID:CVCL_1659). Pooled donor human umbilical vein endothelial cells (HUVEC, Lonza, cat. CC-2519) and human mesenchymal stem cells (hMSC, Lonza, cat. PT-2501) were purchased from Lonza (Walkersville, MD).
Cell Culture. […]

[1] = compound alone, run of 11/07/2022
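Further: compound exposure lasted 7 days.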
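Wherever viability, T/C is given: 100% = DMSO vehicle control wells.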

| Structure (SMILES) | viability, T/C (compound 0.0316 µM) | viability, T/C (compound 0.1 µM) | viability, T/C (compound 0.316 µM) | viability, T/C (compound 1 µM) | viability, T/C (compound 3.16 µM) | viability, T/C (compound 10 µM) | IC50 (curve of compound) | viability, T/C (compound 0.00316 µM) | viability, T/C (compound 0.01 µM) | also measured |
| --- | --- | --- | --- | --- | --- | --- | --- | --- | --- | --- |
| C#Cc1c(F)ccc2cc(O)cc(-c3ncc4c(N5CC6CCC(C5)N6)nc(OCC56CCCN5CC(F)C6)nc4c3F)c12 (stereo not given) | 103% and 101% and 90.9% | 88.8% and 94.5% and 88.5% | 100% and 104% and 103% | 109% and 104% and 115% | 105% and 100% (2×) | 96.9% and 95.9% and 104% | > 10000 nM |  |  |  |
| C=C(F)C(=O)N1CCN(c2nc(OCC3CCCN3C)nc3c2CCN(c2cccc4cccc(Cl)c24)C3)CC1CC#N (stereo not given) | 98.4% and 102% | 102% and 94.9% | 102% | 109% and 106% | 95.6% | 18.6% and 29.3% | 6270 nM and 7000 nM |  |  |  |
| C=CC(=O)N1CCN(c2nc(=O)n(-c3c(C)ccnc3C(C)C)c3nc(-c4c(O)cccc4F)c(F)cc23)C(C)C1 (stereo not given) | 102% and 108% | 90.1% and 88.6% | 93% and 101% | 100% and 110% | 102% and 104% | 93.7% and 107% | > 10000 nM |  |  |  |
| CCN1C(C(=O)NC23CCC(C(=O)O)(CC2)CC3)C(c2cccc(Cl)c2F)C2(C(=O)Nc3cc(Cl)ccc32)C12CCCCC2 (stereo not given) |  |  |  |  |  |  | > 3000 nM |  |  | viability, T/C (compound 0.00949 µM): 98.6% [middle of 8 runs]; viability, T/C (compound 0.03 µM): 96.1% [middle of 8 runs]; viability, T/C (compound 0.0949 µM): 88.7% [middle of 8 runs]; viability, T/C (compound 0.3 µM): 82.9% [middle of 8 runs]; viability, T/C (compound 0.949 µM): 76.8% [middle of 8 runs]; viability, T/C (compound 3 µM): 77.5% [middle of 8 runs]; IC50 [1]: > 3000 nM |
| CCN1CCN(Cc2ccc(Nc3ncc(F)c(-c4cc(F)c5nc(C)n(C(C)C)c5c4)n3)nc2)CC1 | 100% and 108% and 97.6% | 98.9% and 96% and 104% | 113% and 108% and 115% | 119% and 120% and 125% |  |  | > 1000 nM | 102% and 101% and 107% | 99.4% and 93.9% and 78.5% |  |
| CNC(C)C(=O)NC1CN(S(=O)(=O)c2cccc(S(=O)(=O)N3CCC4CCC(C(=O)NC(c5ccccc5)c5ccccc5)N4C(=O)C(NC(=O)C(C)NC)C3)c2)CCC2CCC(C(=O)NC(c3ccccc3)c3ccccc3)N2C1=O (stereo not given) | 100% [middle of 6 runs] | 99.2% [middle of 6 runs] | 96.8% [middle of 6 runs] | 92.2% [middle of 6 runs] |  |  | > 1000 nM | 99.1% [middle of 6 runs] | 94.9% [middle of 6 runs] | IC50 (compound alone, run of 11/15/2022): > 1000 nM |
| COc1c(OCCCN2CCOCC2)ccc2c3n(c(=NC(=O)c4cnc(N)nc4)nc12)CCN3 | 77.9% and 77.5% | 65.9% and 65.1% | 59% and 58.9% | 41.5% and 44.9% |  |  | 524 nM and 659 nM | 94.5% and 96.1% | 90.6% and 82% |  |
| Cc1c(S(C)(=O)=O)c(-c2cc(F)cc(N3CCN(c4ccc(NS(=O)(=O)c5ccc(NC(CCN6CCC(C(=O)OCCCP(=O)(O)O)CC6)CSc6ccccc6)c(S(=O)(=O)C(F)(F)F)c5)cc4)CC3)c2)c(-c2ccc(Cl)cc2)n1C(C)C (stereo not given) | 96.2% [middle of 7 runs] | 94.8% [middle of 7 runs] | 87.8% [middle of 7 runs] | 78% [middle of 7 runs] | 62.6% [middle of 7 runs] | 56.5% [middle of 7 runs] |  |  |  | IC50 [1]: > 10000 nM |
| Cc1nc(N2CCC3(CC2)COC(C)C3N)c(CO)nc1Sc1ccnc(N)c1Cl (stereo not given) |  |  |  |  |  |  | > 3000 nM |  |  | viability, T/C (compound 0.00949 µM): 97.7% and 107% (2×); viability, T/C (compound 0.03 µM): 88.5% and 90.2% and 90.5%; viability, T/C (compound 0.0949 µM): 86.5% and 88.5% and 79.4%; viability, T/C (compound 0.3 µM): 87.4% and 87% and 82%; viability, T/C (compound 0.949 µM): 87% and 81.9% and 80.6%; viability, T/C (compound 3 µM): 70.8% (2×) and 71.8% |
| Cn1ncnc1[C@H]1c2n[nH]c(=O)c3cc(F)cc(c23)N[C@@H]1c1ccc(F)cc1 | 102% and 103% (2×) | 99.3% and 97.9% and 94% |  |  |  |  | > 100 nM | 103% and 107% and 104% | 96.4% and 102% (2×) | viability, T/C (compound 0.000316 µM): 98.9% and 88% and 106%; viability, T/C (compound 0.001 µM): 91.2% and 98.6% and 99.5% |
| NC(=O)C(=Cn1cnc(-c2cc(C(F)(F)F)cc(C(F)(F)F)c2)n1)c1cncnc1 |  |  |  |  |  |  | > 300 nM |  |  | viability, T/C (compound 0.000949 µM): 96.5% and 87.3% and 115%; viability, T/C (compound 0.003 µM): 84.7% and 83.7% and 102%; viability, T/C (compound 0.00949 µM): 92.6% and 85.6% and 96.3%; viability, T/C (compound 0.03 µM): 87.8% and 84.8% and 87.7%; viability, T/C (compound 0.0949 µM): 83.6% and 81.3% and 79.4%; viability, T/C (compound 0.3 µM): 73.8% and 73.3% and 60.4% |
| NC1CCC(NC2CC2c2ccccc2)CC1 (stereo not given) | 94.2% and 88.1% | 86.1% and 94.9% |  |  |  |  | > 100 nM | 87.3% and 94.4% | 92.6% and 95.7% | viability, T/C (compound 0.000316 µM): 89.8% and 86.8%; viability, T/C (compound 0.001 µM): 94.3% and 87.5% |
| O=C(c1cc(Cc2n[nH]c(=O)c3ccccc23)ccc1F)N1CCN(C(=O)C2CC2)CC1 | 98.1% and 99.9% and 93.3% | 98.8% and 91.9% and 78.9% | 99.5% and 98.5% and 103% | 96.7% and 97.9% and 108% | 103% and 97.2% and 92.4% | 92.1% and 91.5% and 97.2% | > 10000 nM |  |  |  |
| O=C(c1ccc(F)c(F)c1Nc1ccc(I)cc1F)N1CC(O)([C@@H]2CCCCN2)C1 | 71.1% and 60.7% and 77.5% | 57.1% and 58.9% and 75.6% | 39.7% and 42% and 51.9% | 29% and 29.9% and 35.8% |  |  | 159 nM and 140 nM and 397 nM | 88.3% and 95.1% and 104% | 79.2% and 78% (2×) |  |
